Patent US11399541B2, “Storage-stable microbicidal concentrates and use thereof as preservatives” (Vink Chemicals GmbH & Co. KG, priority 2017, dated 2022)
Marks after values point to notes of the source that are not given here.

Experiments:
[1] = system: Staphylococcus aureus; assay: Staphylococcus aureus Germ Count Reduction Test; assay type: cell-based; conditions: use-concentration (0.50% Composition 1; 0.0025% amine; 0.0050% butyl-BIT; 0.50% phenoxyethanol), initial count approx. 10^7 cfu/ml; for semi-quantitative assessment of the microbial growth of the streaks, Contact time [min] 2: contact time 2 min; for semi-quantitative assessment of the microbial growth of the streaks, Contact time [min] 5: contact time 5 min; for semi-quantitative assessment of the microbial growth of the streaks, Contact time [min] 10: contact time 10 min; for semi-quantitative assessment of the microbial growth of the streaks, Contact time [min] 60: contact time 60 min
Experimental: (§1) Dilutions of the samples are prepared with sterile tap water. 25 ml portions of the end solutions are inoculated with 0.1 ml microorganism suspension (initial microorganism count approx. 10^7 cfu/ml) and stirred.
For the reduction test with Staphylococcus aureus the solutions are streaked out onto tryptone soya agar after 2,5,10 and 60 minutes.
(§2) The cultures are incubated for 48 hours at 37° C., except for Aspergillus brasiliensis, which is incubated for 72 hours at 25-27° C. The evaluation is made on the basis of semi-quantitative assessment of the microbial growth of the streaks.

[2] = system: Aspergillus brasiliensis; assay: Aspergillus brasiliensis Germ Count Reduction Test; assay type: cell-based; conditions: use-concentration (0.50% Composition 1; 0.0025% amine; 0.0050% butyl-BIT; 0.50% phenoxyethanol), initial count approx. 10^7 cfu/ml; for semi-quantitative assessment of the microbial growth of the streaks, Contact time [h] 1: contact time 1 h; for semi-quantitative assessment of the microbial growth of the streaks, Contact time [h] 3: contact time 3 h; for semi-quantitative assessment of the microbial growth of the streaks, Contact time [h] 6: contact time 6 h; for semi-quantitative assessment of the microbial growth of the streaks, Contact time [h] 24: contact time 24 h
Experimental: as §1
For testing the reduction with Aspergillus brasiliensis the solutions are streaked out onto Sabouraud-dextrose 4% agar after 1, 3, 6 and 24 hours.
as §2

For `CCCCn1sc2ccccc2c1=O` [2-butyl-1,2-benzisothiazolin-3-one], the “semi-quantitative assessment of the microbial growth of the streaks, Contact time [min] 2” value [1] was “++++ (= massive growth approx. 10^5)”, the “semi-quantitative assessment of the microbial growth of the streaks, Contact time [min] 5” value [1] was “++++ (= massive growth approx. 10^5)” and the “semi-quantitative assessment of the microbial growth of the streaks, Contact time [min] 10” value [1] was “++++ (= massive growth approx. 10^5)”. The “semi-quantitative assessment of the microbial growth of the streaks, Contact time [min] 60” value [1] was “+++ (= heavy growth approx. 10^4)”, the “semi-quantitative assessment of the microbial growth of the streaks, Contact time [h] 1” value [2] was “++++ (= massive growth approx. 10^5)” and the “semi-quantitative assessment of the microbial growth of the streaks, Contact time [h] 3” value [2] was “++++ (= massive growth approx. 10^5)”. The “semi-quantitative assessment of the microbial growth of the streaks, Contact time [h] 6” value [2] was “++++ (= massive growth approx. 10^5)” and the “semi-quantitative assessment of the microbial growth of the streaks, Contact time [h] 24” value [2] was “++++ (= massive growth approx. 10^5)”.
For `CCCCCCCCCCCCN(CCCN)CCCN` [N,N bis(3-aminopropyl)-dodecylamine], the “semi-quantitative assessment of the microbial growth of the streaks, Contact time [min] 2” value [1] was “+++ (= heavy growth approx. 10^4)”, the “semi-quantitative assessment of the microbial growth of the streaks, Contact time [min] 5” value [1] was “++ (= moderate growth approx. 10^3)” and the “semi-quantitative assessment of the microbial growth of the streaks, Contact time [min] 10” value [1] was “++ (= moderate growth approx. 10^3)”. The “semi-quantitative assessment of the microbial growth of the streaks, Contact time [min] 60” value [1] was “− (= no growth <100)”, the “semi-quantitative assessment of the microbial growth of the streaks, Contact time [h] 1” value [2] was “C (= surface covered approx. 10^6)” and the “semi-quantitative assessment of the microbial growth of the streaks, Contact time [h] 3” value [2] was “C (= surface covered approx. 10^6)”. The “semi-quantitative assessment of the microbial growth of the streaks, Contact time [h] 6” value [2] was “++++ (= massive growth approx. 10^5)” and the “semi-quantitative assessment of the microbial growth of the streaks, Contact time [h] 24” value [2] was “++++ (= massive growth approx. 10^5)”.
